Experimental data: patent publication US10294236B2, “Compounds as rearranged during transfection (RET) inhibitors” (GLAXOSMITHKLINE INTELLECTUAL PROPERTY DEVELOPMENT LIMITED, priority 2014, dated 2019)

What follows are compounds tested against T1, Human RET kinase cytoplasmic domain (Homo sapiens, UniProt P07949) (assay: RET kinase enzymatic assay).
T1 construct: made in house
T1 sequence (P07949 658-1114): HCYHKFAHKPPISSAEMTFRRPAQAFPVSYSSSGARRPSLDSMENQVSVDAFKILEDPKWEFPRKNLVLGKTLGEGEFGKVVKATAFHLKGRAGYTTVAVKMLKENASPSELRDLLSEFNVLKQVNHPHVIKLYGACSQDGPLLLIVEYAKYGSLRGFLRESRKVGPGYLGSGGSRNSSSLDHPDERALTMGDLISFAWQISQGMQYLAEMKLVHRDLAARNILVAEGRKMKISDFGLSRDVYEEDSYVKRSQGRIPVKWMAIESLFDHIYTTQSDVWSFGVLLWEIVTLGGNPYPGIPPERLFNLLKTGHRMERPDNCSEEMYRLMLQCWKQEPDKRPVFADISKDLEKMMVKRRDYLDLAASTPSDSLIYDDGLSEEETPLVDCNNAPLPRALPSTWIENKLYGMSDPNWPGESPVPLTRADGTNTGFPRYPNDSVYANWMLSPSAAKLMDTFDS
Type: biochemical
Method: GST-RET was purified using glutathione sepharose chromatography. The RET kinase enzymatic assay was performed in a total volume of 10 uL with increasing concentrations of RET kinase inhibitor as a singlet in a 384 well format as follows: RET inhibitor compound plates are prepared by adding 100 nL of RET inhibitor at different concentrations to a 384-well plate. 5 μL/well of a 2× enzyme mix (50 mM HEPES (4-(2-hydroxyethyl)-1-piperazineethanesulfonic acid); 1 mM CHAPS (3-[(3-cholamidopropyl)dimethylammonio]-1-propanesulfonate); 0.1 mg/mL BSA (bovine serum albumin); 1 mM DTT (dithiothreitol); 0.2 nM RET kinase) was added to the 384-well plate and incubated for 30 minutes at 23° C. 5 µL/well of a 2× substrate mix (50 mM HEPES; 1 mM CHAPS; 0.1 mg/mL BSA; 20 μM adenosine triphosphate; 20 mM MgCl2 and 1 μM biotinylated peptide substrate) was added and incubated for 1 hour at 23° C. […] IC50s were fitted using GraphPad Prism to a sigmoidal dose response.

IC50, < 100 nM:
CCOc1cc(=O)[nH]cc1-c1ncc(NC(=O)Nc2ccc(C(C)(C)C#N)c(C(F)(F)F)c2)c(C)n1 [Example 26, 1-(4-(2-Cyanopropan-2-yl)-3-(trifluoromethyl)phenyl)-3-(2-(4-ethoxy-6-oxo-1,6-dihydropyridin-3-yl)-4-methylpyrimidin-5-yl)urea]
CCOc1cc(-c2ccc(NC(=O)Nc3ccc(OC4(C)COC4)c(C(F)(F)F)c3)nc2)c[nH]c1=O [Example 27, 1-(5′-Ethoxy-6′-oxo-1′,6′-dihydro-[3,3′-bipyridin]-6-yl)-3-(4-((3-methyloxetan-3-yl)oxy)-3-(trifluoromethyl)phenyl)urea]
CCOc1cc(=O)[nH]cc1-c1ncc(NC(=O)Nc2cnc(C(C)(C)O)c(C(F)(F)F)c2)c(C)n1 [Example 28, 1-(2-(4-Ethoxy-6-oxo-1,6-dihydropyridin-3-yl)-4-methylpyrimidin-5-yl)-3-(6-(2-hydroxypropan-2-yl)-5-(trifluoromethyl)pyridin-3-yl)urea]
CCOc1cc(-c2ncc(NC(=O)Nc3cnc(C(C)(C)O)c(C(F)(F)F)c3)c(C)n2)c[nH]c1=O [Example 29, 1-(2-(5-Ethoxy-6-oxo-1,6-dihydropyridin-3-yl)-4-methylpyrimidin-5-yl)-3-(6-(2-hydroxypropan-2-yl)-5-(trifluoromethyl)pyridin-3-yl)urea]
CCOc1cc(-c2ccc(NC(=O)Nc3ccc(CN4CCN(CC)CC4)c(C(F)(F)F)c3)c(C(F)F)c2)c[nH]c1=O [Example 30, 1-(2-(Difluoromethyl)-4-(5-ethoxy-6-oxo-1,6-dihydropyridin-3-yl)phenyl)-3-(4-((4-ethylpiperazin-1-yl)methyl)-3-(trifluoromethyl)phenyl)urea]
CCOc1cc(Oc2ccc(NC(=O)Nc3ccc(CN4CCN(CC)CC4)c(C(F)(F)F)c3)cc2)c[nH]c1=O [Example 31, 1-(4-((5-Ethoxy-6-oxo-1,6-dihydropyridin-3-yl)oxy)phenyl)-3-(4-((4-ethylpiperazin-1-yl)methyl)-3-(trifluoromethyl)phenyl)urea]
CCOc1cc(-c2ncc(NC(=O)Nc3cc(C(F)(F)F)c(CN4CCN(CC)CC4)cc3F)c(C)n2)c[nH]c1=O [Example 32, 1-(2-(5-Ethoxy-6-oxo-1,6-dihydropyridin-3-yl)-4-methylpyrimidin-5-yl)-3-(4-((4-ethylpiperazin-1-yl)methyl)-2-fluoro-5-(trifluoromethyl)phenyl)urea]
CCOc1cc(-c2nc(C)c(NC(=O)Nc3ccc(CN4CCN(CC)CC4)c(C(F)(F)F)c3)c(C)n2)c[nH]c1=O [Example 33, 1-(2-(5-Ethoxy-6-oxo-1,6-dihydropyridin-3-yl)-4,6-dimethylpyrimidin-5-yl)-3-(4-((4-ethylpiperazin-1-yl)methyl)-3-(trifluoromethyl)phenyl)urea]
CCOc1nc(=O)[nH]cc1-c1ccc(NC(=O)Nc2ccc(OC3(C)COC3)c(C(F)(F)F)c2)c(F)c1 [Example 34, 1-(4-(4-Ethoxy-2-oxo-1,2-dihydropyrimidin-5-yl)-2-fluorophenyl)-3-(4-((3-methyloxetan-3-yl)oxy)-3-(trifluoromethyl)phenyl)urea]
CCOc1[nH]c(=O)ccc1-c1ccc(NC(=O)Nc2ccc(OC3(C)COC3)c(C(F)(F)F)c2)c(F)c1 [Example 35, 1-(4-(2-Ethoxy-6-oxo-1,6-dihydropyridin-3-yl)-2-fluorophenyl)-3-(4-((3-methyloxetan-3-yl)oxy)-3-(trifluoromethyl)phenyl)urea]
CC1(Oc2ccc(NC(=O)Nc3ccc(-c4c[nH]c(=O)c(F)c4)cc3F)cc2C(F)(F)F)COC1 [Example 36, 1-(2-Fluoro-4-(5-fluoro-6-oxo-1,6-dihydropyridin-3-yl)phenyl)-3-(4-((3-methyloxetan-3-yl)oxy)-3-(trifluoromethyl)phenyl)urea]
CC1(Oc2ccc(NC(=O)Nc3ccc(-c4c[nH]c(=O)cc4F)cc3F)cc2C(F)(F)F)COC1 [Example 37, 1-(2-Fluoro-4-(4-fluoro-6-oxo-1,6-dihydropyridin-3-yl)phenyl)-3-(4-((3-methyloxetan-3-yl)oxy)-3-(trifluoromethyl)phenyl)urea]
CCOc1cc(=O)[nH]cc1-c1ncc(NC(=O)Nc2cccc(C(F)(F)F)c2)c(C)n1 [Example 38, 1-(2-(4-Ethoxy-6-oxo-1,6-dihydropyridin-3-yl)-4-methylpyrimidin-5-yl)-3-(3-(trifluoromethyl)phenyl)urea]
Cc1nc(-c2c[nH]c(=O)c3occc23)ncc1NC(=O)Nc1cnc(C(C)(C)O)c(C(F)(F)F)c1 [Example 39, 1-(6-(2-Hydroxypropan-2-yl)-5-(trifluoromethyl)pyridin-3-yl)-3-(4-methyl-2-(7-oxo-6,7-dihydrofuro[2,3-c]pyridin-4-yl)pyrimidin-5-yl)urea]
Cc1[nH]c(=O)ccc1-c1ccc(NC(=O)Nc2ccc(OC3(C)COC3)c(C(F)(F)F)c2)c(F)c1 [Example 40, 1-(2-Fluoro-4-(2-methyl-6-oxo-1,6-dihydropyridin-3-yl)phenyl)-3-(4-((3-methyloxetan-3-yl)oxy)-3-(trifluoromethyl)phenyl)urea]
CCOc1cc(-c2cnc(NC(=O)Nc3ccc(CC(C)(C)CO)c(C(F)(F)F)c3)c(C)n2)c[nH]c1=O [Example 41, 1-(5-(5-Ethoxy-6-oxo-1,6-dihydropyridin-3-yl)-3-methylpyrazin-2-yl)-3-(4-(3-hydroxy-2,2-dimethylpropyl)-3-(trifluoromethyl)phenyl)urea]
CCOc1cc(-c2ncc(NC(=O)Nc3cccc(C(F)(F)F)c3)c(C)n2)c[nH]c1=O [Example 42, 1-(2-(5-Ethoxy-6-oxo-1,6-dihydropyridin-3-yl)-4-methylpyrimidin-5-yl)-3-(3-(trifluoromethyl)phenyl)urea]
CCOc1cc(-c2ncc(NC(=O)Nc3ccc(C#N)c(C(F)(F)F)c3)c(C)n2)c[nH]c1=O [Example 43, 1-(4-Cyano-3-(trifluoromethyl)phenyl)-3-(2-(5-ethoxy-6-oxo-1,6-dihydropyridin-3-yl)-4-methylpyrimidin-5-yl)urea]
CCOc1cc(=O)[nH]cc1-c1ncc(NC(=O)Nc2ccc(C#N)c(C(F)(F)F)c2)c(C)n1 [Example 44, 1-(4-Cyano-3-(trifluoromethyl)phenyl)-3-(2-(4-ethoxy-6-oxo-1,6-dihydropyridin-3-yl)-4-methylpyrimidin-5-yl)urea]
CCOc1cc(-c2ccc(NC(=O)Nc3ccc(CN4CCOCC4)c(C(F)(F)F)c3)c(F)c2)c[nH]c1=O [Example 45, 1-(4-(5-Ethoxy-6-oxo-1,6-dihydropyridin-3-yl)-2-fluorophenyl)-3-(4-(morpholinomethyl)-3-(trifluoromethyl)phenyl)urea]
CCOc1cc(=O)[nH]cc1-c1ncc(NC(=O)Nc2cc(C(C)(C)C(F)(F)F)on2)c(C)n1 [Example 46, 1-(2-(4-Ethoxy-6-oxo-1,6-dihydropyridin-3-yl)-4-methylpyrimidin-5-yl)-3-(5-(1,1,1-trifluoro-2-methylpropan-2-yl)isoxazol-3-yl)urea]
